In BindingDB's records for doi:10.1021/jm00403a014 (National Institute of Diabetes, Digestive and Kidney …, 1988):

Test: Binding affinity to sigma site of Phencyclidine receptor by displacement of [3H]-(+)-SKF- 10,047

c1ccc(C2(N3CCCCC3)CCCCC2)cc1
Ki: 530 nM
